Results published in patent US20080009418A1, “Selective Inhibitors” (Alchemia LTD., priority 2004, published 2008).

How the values were obtained:
Human δ-opioid (DOP) = biological target: T1, Human δ-opioid (DOP) (Homo sapiens, UniProt P41143); assay: Radioligand binding, human δ-opioid (DOP) membranes, FlashPlate, [3H]-Bremazocine; settings: compound at 10 μM; for A1: inhibition of radioligand binding / A1 radioligand binding, percentage inhibition: [3H]-Bremazocine
T1 construct: purchased Perkin Elmer Biosignal
T1 sequence (P41143 whole entry): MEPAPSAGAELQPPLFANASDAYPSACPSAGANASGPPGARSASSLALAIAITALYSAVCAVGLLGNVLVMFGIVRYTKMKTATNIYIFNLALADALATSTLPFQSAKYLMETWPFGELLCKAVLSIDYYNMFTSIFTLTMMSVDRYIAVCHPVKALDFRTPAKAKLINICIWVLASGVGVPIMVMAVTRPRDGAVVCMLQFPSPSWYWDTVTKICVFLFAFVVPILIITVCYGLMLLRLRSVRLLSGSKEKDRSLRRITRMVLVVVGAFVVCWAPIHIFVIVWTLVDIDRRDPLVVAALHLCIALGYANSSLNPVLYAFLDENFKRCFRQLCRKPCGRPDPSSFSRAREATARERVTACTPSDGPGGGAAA
Outline: (§1)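 Cloned human receptor membranes were coated onto FlashPlate wells and incubated with radioligand and compound (added from a 0.5 mM DMSO daughter plate) for 1 hour at room temperature in the dark. Scintillation counting gave percent inhibition, with DMSO defining total and reference ligand defining non-specific binding.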

Human κ-Opioid (KOP) = biological target: T2, Human κ-Opioid (KOP) (Homo sapiens, UniProt P41145); assay: Radioligand binding, human κ-opioid (KOP) membranes, filtration, [3H]-Diprenorphine; settings: compound at 10 μM; for A2: inhibition of radioligand binding / A2 radioligand binding, percentage inhibition: [3H]-Diprenorphine
T2 construct: purchased Perkin Elmer Biosignal
T2 sequence (P41145 whole entry): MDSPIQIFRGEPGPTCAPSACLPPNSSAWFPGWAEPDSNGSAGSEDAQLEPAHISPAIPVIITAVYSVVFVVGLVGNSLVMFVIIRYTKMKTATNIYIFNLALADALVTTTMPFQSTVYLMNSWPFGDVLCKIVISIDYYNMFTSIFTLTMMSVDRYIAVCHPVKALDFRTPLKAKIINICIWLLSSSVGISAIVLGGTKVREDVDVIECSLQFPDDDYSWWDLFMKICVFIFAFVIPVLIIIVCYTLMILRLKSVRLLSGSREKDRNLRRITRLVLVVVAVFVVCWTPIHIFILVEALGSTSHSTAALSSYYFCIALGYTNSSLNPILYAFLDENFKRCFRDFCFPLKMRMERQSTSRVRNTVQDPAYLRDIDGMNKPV
Outline: (§2)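 Membranes from cloned human receptors were incubated with compound and radioligand for 1 hour at room temperature. Bound ligand was collected on 0.3% PEI-soaked filters, washed with cold 50 mM Tris-HCl pH 7.4, and counted by scintillation. Percent inhibition was computed against DMSO totals and reference-ligand nonspecific wells.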

Human Melanocortin (MC3) = biological target: T3, Human Melanocortin (MC3) (Homo sapiens, UniProt P41968); assay: Radioligand binding, human melanocortin MC3 membranes, FlashPlate, [125I]-NDP-αMSH; settings: compound at 10 μM; for A3: inhibition of radioligand binding / A3 radioligand binding, percentage inhibition: [125I]-NDP-αMSH
T3 construct: purchased Perkin Elmer Biosignal
T3 sequence (P41968 whole entry): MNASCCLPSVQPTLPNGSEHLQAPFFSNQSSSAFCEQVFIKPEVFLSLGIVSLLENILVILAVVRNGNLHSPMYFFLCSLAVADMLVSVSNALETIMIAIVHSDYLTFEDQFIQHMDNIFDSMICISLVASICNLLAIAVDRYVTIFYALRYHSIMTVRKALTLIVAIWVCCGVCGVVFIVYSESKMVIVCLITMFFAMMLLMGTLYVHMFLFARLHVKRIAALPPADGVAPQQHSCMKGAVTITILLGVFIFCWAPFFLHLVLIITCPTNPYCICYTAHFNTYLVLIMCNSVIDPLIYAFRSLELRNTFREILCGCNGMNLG
Outline: as §1

Human Melanocortin (MC4) = biological target: T4, Human Melanocortin (MC4) (Homo sapiens, UniProt P32245); assay: Radioligand binding, human melanocortin MC4 membranes, FlashPlate, [125I]-NDP-αMSH; settings: compound at 10 μM; for A4: inhibition of radioligand binding / A4 radioligand binding, percentage inhibition: [125I]-NDP-αMSH
T4 construct: purchased Perkin Elmer Biosignal
T4 sequence (P32245 whole entry): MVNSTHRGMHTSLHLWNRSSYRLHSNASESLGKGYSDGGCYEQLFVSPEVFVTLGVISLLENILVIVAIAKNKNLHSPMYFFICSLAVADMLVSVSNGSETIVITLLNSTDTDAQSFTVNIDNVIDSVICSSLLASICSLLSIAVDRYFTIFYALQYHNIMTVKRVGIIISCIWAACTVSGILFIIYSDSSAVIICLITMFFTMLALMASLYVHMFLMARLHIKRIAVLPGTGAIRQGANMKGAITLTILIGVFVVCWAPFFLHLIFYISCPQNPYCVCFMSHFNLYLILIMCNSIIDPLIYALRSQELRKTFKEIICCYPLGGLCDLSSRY
Outline: as §1

Human melanocortin (MC5) = biological target: T5, Human melanocortin (MC5) (Homo sapiens, UniProt P33032); assay: Radioligand binding, human melanocortin MC5 membranes, FlashPlate, [125I]-NDP-αMSH; settings: compound at 10 μM; for A5: inhibition of radioligand binding / A5 radioligand binding, percentage inhibition: [125I]-NDP-αMSH
T5 construct: purchased Perkin Elmer Biosignal
T5 sequence (P33032 whole entry): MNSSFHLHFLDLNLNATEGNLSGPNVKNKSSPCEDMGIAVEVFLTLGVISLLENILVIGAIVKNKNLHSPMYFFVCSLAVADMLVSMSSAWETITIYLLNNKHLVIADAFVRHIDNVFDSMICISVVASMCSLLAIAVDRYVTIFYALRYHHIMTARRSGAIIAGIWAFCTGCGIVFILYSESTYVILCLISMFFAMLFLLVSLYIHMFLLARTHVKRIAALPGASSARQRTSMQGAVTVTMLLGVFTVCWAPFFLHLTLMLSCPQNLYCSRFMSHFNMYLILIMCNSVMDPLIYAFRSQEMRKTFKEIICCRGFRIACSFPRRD
Outline: as §1

[1] = biological target: T6, Human melanin-concentrating hormone (MCH1) (Homo sapiens, UniProt Q99705); assay: Radioligand binding, human melanin-concentrating hormone MCH1 membranes, FlashPlate, [125I]-S36057; settings: compound at 10 μM; for A6 radioligand binding, percentage inhibition: [125I]-S36057
T6 construct: purchased Perkin Elmer Biosignal
T6 sequence (Q99705 whole entry): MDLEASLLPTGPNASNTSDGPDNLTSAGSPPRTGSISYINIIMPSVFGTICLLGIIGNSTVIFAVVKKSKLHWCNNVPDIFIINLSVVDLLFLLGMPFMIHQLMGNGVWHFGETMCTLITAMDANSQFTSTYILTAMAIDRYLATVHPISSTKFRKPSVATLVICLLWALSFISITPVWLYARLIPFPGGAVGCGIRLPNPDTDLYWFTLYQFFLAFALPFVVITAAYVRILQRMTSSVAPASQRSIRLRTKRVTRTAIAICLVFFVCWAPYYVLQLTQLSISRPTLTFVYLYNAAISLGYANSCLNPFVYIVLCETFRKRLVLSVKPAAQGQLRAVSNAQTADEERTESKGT
Outline: as §1

Human μ-opioid (MOP) = biological target: T7, Human μ-opioid (MOP) (Homo sapiens, UniProt P35372); assay: Radioligand binding, human μ-opioid (MOP) membranes, FlashPlate, [3H]-Naloxone; settings: compound at 10 μM; for A7: inhibition of radioligand binding / A7 radioligand binding, percentage inhibition: [3H]-Naloxone
T7 construct: purchased Perkin Elmer Biosignal
T7 sequence (P35372 whole entry): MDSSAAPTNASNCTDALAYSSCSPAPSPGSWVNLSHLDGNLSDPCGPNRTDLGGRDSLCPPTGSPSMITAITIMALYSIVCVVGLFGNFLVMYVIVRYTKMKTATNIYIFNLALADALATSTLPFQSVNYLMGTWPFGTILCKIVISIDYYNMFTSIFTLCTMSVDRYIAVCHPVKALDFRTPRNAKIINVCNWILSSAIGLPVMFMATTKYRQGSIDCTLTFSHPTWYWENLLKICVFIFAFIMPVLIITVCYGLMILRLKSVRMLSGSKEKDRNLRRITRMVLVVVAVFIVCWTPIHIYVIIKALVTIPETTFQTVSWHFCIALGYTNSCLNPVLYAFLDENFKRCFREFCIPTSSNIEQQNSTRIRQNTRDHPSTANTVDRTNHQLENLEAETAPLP
Outline: as §1

Human neurokinin (NK1) = biological target: T8, Human neurokinin (NK1) (Homo sapiens, UniProt P25103); assay: Radioligand binding, human neurokinin NK1 membranes, filtration, [125I]-Substance P; settings: compound at 10 μM; for A8: inhibition of radioligand binding / A8 radioligand binding, percentage inhibition: [125I]-Substance P
T8 construct: purchased Perkin Elmer Biosignal
T8 sequence (P25103 whole entry): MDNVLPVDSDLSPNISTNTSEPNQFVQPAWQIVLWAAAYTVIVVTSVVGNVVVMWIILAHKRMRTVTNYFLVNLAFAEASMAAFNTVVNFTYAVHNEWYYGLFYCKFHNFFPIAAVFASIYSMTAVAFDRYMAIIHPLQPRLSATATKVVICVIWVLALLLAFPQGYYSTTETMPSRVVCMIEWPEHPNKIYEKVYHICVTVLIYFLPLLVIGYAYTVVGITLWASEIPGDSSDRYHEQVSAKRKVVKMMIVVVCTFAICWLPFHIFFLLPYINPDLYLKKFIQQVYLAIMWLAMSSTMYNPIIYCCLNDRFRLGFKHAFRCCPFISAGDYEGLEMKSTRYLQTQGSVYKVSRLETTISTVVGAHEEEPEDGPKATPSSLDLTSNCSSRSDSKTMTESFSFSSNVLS
Outline: as §2

[2] = biological target: T9, Human neuropeptide Y (NPY-Y1) (Homo sapiens, UniProt P25929); assay: Radioligand binding, human neuropeptide Y NPY-Y1 membranes, FlashPlate, [125I]-PYY; settings: compound at 10 μM; for A9: inhibition of radioligand binding / A9 radioligand binding, percentage inhibition: [125I]-PYY
T9 construct: purchased Perkin Elmer Biosignal
T9 sequence (P25929 1-384): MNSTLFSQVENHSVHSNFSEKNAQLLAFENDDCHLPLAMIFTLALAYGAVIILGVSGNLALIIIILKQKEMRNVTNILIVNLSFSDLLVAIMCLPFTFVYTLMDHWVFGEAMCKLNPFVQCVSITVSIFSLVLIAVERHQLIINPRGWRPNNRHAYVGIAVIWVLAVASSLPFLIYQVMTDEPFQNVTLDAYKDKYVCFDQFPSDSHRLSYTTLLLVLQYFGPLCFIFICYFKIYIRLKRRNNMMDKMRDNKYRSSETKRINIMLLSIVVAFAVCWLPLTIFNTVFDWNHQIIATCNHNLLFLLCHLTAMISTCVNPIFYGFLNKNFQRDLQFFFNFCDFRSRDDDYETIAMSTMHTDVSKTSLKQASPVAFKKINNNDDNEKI
Outline: as §1

Human opioid (ORL1) = biological target: T10, Human opioid (ORL1) (Homo sapiens, UniProt P41146); assay: Radioligand binding, human opioid ORL1 membranes, FlashPlate, [125I]-Nociceptin; settings: compound at 10 μM; for A10: inhibition of radioligand binding / A10 radioligand binding, percentage inhibition: [125I]-Nociceptin
T10 construct: purchased Perkin Elmer Biosignal
T10 sequence (P41146 whole entry): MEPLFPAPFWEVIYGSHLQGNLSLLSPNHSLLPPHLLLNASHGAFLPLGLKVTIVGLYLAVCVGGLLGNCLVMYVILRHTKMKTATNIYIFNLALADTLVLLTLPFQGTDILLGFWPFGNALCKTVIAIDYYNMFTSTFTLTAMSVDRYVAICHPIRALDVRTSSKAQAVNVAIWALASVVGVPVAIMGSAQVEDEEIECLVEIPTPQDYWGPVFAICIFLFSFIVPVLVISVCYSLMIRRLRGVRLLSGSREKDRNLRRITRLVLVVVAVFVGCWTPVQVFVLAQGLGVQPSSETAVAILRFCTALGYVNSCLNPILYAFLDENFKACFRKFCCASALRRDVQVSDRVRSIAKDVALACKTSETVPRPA
Outline: as §1

Mouse urotensin (mUR2) = biological target: T11, Mouse urotensin (mUR2) (Mus musculus, UniProt Q8VIH9); assay: Radioligand binding, mouse urotensin mUR2 membranes, FlashPlate, [125I]-Urotensin II; settings: compound at 10 μM; for A11: inhibition of radioligand binding / A11 radioligand binding, percentage inhibition: [125I]-Urotensin II
T11 construct: purchased Perkin Elmer Biosignal
T11 sequence (Q8VIH9 1-385): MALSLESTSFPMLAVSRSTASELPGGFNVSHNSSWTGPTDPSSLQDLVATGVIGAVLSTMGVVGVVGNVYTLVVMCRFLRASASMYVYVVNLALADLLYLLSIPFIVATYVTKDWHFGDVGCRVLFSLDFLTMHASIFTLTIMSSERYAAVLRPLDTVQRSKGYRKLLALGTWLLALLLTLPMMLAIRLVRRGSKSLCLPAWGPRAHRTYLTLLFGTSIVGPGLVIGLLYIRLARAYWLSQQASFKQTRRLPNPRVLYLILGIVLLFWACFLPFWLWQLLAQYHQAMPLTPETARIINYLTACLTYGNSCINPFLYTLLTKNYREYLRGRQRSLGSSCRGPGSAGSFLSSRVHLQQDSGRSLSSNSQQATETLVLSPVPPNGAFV
Outline: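 Cloned mouse urotensin (mUR2) receptor membranes from Perkin Elmer Biosignal were immobilized in FlashPlate microplates using a proprietary coating. Each well got 19.5 μl buffer, then 0.5 μl of DMSO, reference ligand, or compound. Adding 5 μl of [125I]-Urotensin II, diluted to 5× final concentration in binding buffer, started binding. Plates were sealed with TopSeal-A and incubated 1 hour at room temperature in the dark. Wells were counted for 30 seconds each on a TopCount after a 60-second delay, and percentage inhibition was calculated.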

COC[C@H]1OC(OCc2ccc(Cl)cc2)[C@H](NC(=O)CCNC(=N)N)[C@@H](OCc2ccc(Cl)cc2)[C@@H]1O (stereo partly shown) [compound 38]
A1 radioligand binding inhibition (Human δ-opioid (DOP); human δ-opioid (DOP) membranes): − (“−” indicates less than 50% inhibition at 10 μM) | A2 radioligand binding inhibition (Human κ-Opioid (KOP); human κ-opioid (KOP) membranes): − (“−” indicates less than 50% inhibition at 10 μM) | A3 radioligand binding inhibition (Human Melanocortin (MC3); human melanocortin MC3 membranes): − (“−” indicates less than 50% inhibition at 10 μM) | A4 radioligand binding inhibition (Human Melanocortin (MC4); human melanocortin MC4 membranes): − (“−” indicates less than 50% inhibition at 10 μM) | A5 radioligand binding inhibition (Human melanocortin (MC5); human melanocortin MC5 membranes): + (“+” indicates greater than 50% inhibition at 10 μM) | A6 radioligand binding inhibition ([1]; human MCH1 membranes): + (“+” indicates greater than 50% inhibition at 10 μM) | A7 radioligand binding inhibition (Human μ-opioid (MOP); human μ-opioid (MOP) membranes): − (“−” indicates less than 50% inhibition at 10 μM) | A8 radioligand binding inhibition (Human neurokinin (NK1); human neurokinin NK1 membranes): + (“+” indicates greater than 50% inhibition at 10 μM) | A9 radioligand binding inhibition ([2]; human NPY-Y1 membranes): − (“−” indicates less than 50% inhibition at 10 μM) | A10 radioligand binding inhibition (Human opioid (ORL1); human ORL1 membranes): − (“−” indicates less than 50% inhibition at 10 μM) | A11 radioligand binding inhibition (Mouse urotensin (mUR2); mouse urotensin mUR2 membranes): − (“−” indicates less than 50% inhibition at 10 μM)

NCCC(=O)N[C@H]1C(OCc2ccc3ccccc3c2)O[C@H](COCc2ccc(Cl)cc2)[C@@H](O)[C@@H]1OCc1ccc2ccccc2c1 (stereo partly shown) [compound 446]
A1: inhibition of radioligand binding (Human δ-opioid (DOP); human DOP membranes): − (“−” indicates less than 50% inhibition at 10 μM) | A2: inhibition of radioligand binding (Human κ-Opioid (KOP); human KOP membranes): − (“−” indicates less than 50% inhibition at 10 μM) | A3: inhibition of radioligand binding (Human Melanocortin (MC3); human MC3 membranes, 10 µM): − (“−” indicates less than 50% inhibition at 10 μM) | A4: inhibition of radioligand binding (Human Melanocortin (MC4); human MC4 membranes, 10 µM): − (“−” indicates less than 50% inhibition at 10 μM) | A5: inhibition of radioligand binding (Human melanocortin (MC5); human MC5 membranes): + (“+” indicates greater than 50% inhibition at 10 μM) | A6: inhibition of radioligand binding ([1]; [125I]-S36057, human MCH1 membranes, 10 µM): − (“−” indicates less than 50% inhibition at 10 μM) | A7: inhibition of radioligand binding (Human μ-opioid (MOP); human MOP membranes): − (“−” indicates less than 50% inhibition at 10 μM) | A8: inhibition of radioligand binding (Human neurokinin (NK1); human NK1 membranes): + (“+” indicates greater than 50% inhibition at 10 μM) | A9: inhibition of radioligand binding ([2]; human NPY-Y1 membranes): − (“−” indicates less than 50% inhibition at 10 μM) | A10: inhibition of radioligand binding (Human opioid (ORL1); human ORL1 membranes): − (“−” indicates less than 50% inhibition at 10 μM) | A11: inhibition of radioligand binding (Mouse urotensin (mUR2); mouse mUR2 membranes): − (“−” indicates less than 50% inhibition at 10 μM)

COCC1OC(OCc2ccccc2)C(NC(=O)CNC(=N)N)C(OCc2ccccc2)C1O (stereo not shown) [compound 171]
A1 radioligand binding, percentage inhibition (Human δ-opioid (DOP)): − (“−” indicates less than 50% inhibition at 10 μM) | A2 radioligand binding, percentage inhibition (Human κ-Opioid (KOP)): − (“−” indicates less than 50% inhibition at 10 μM) | A3 radioligand binding, percentage inhibition (Human Melanocortin (MC3)): − (“−” indicates less than 50% inhibition at 10 μM) | A4 radioligand binding, percentage inhibition (Human Melanocortin (MC4)): − (“−” indicates less than 50% inhibition at 10 μM) | A5 radioligand binding, percentage inhibition (Human melanocortin (MC5)): + (“+” indicates greater than 50% inhibition at 10 μM) | A6 radioligand binding, percentage inhibition [1]: − (“−” indicates less than 50% inhibition at 10 μM) | A7 radioligand binding, percentage inhibition (Human μ-opioid (MOP)): − (“−” indicates less than 50% inhibition at 10 μM) | A8 radioligand binding, percentage inhibition (Human neurokinin (NK1)): + (“+” indicates greater than 50% inhibition at 10 μM) | A9 radioligand binding, percentage inhibition [2]: − (“−” indicates less than 50% inhibition at 10 μM) | A10 radioligand binding, percentage inhibition (Human opioid (ORL1)): − (“−” indicates less than 50% inhibition at 10 μM) | A11 radioligand binding, percentage inhibition (Mouse urotensin (mUR2)): − (“−” indicates less than 50% inhibition at 10 μM)

COCC1OC(OCc2ccc(Cl)cc2)C(NC(=O)CCCN)C(OCc2ccc(Cl)cc2)C1O (stereo not shown) [compound 203]
A1: inhibition of radioligand binding (Human δ-opioid (DOP); FlashPlate): − (“−” indicates less than 50% inhibition at 10 μM) | A2: inhibition of radioligand binding (Human κ-Opioid (KOP); filtration): − (“−” indicates less than 50% inhibition at 10 μM) | A3: inhibition of radioligand binding (Human Melanocortin (MC3); FlashPlate): − (“−” indicates less than 50% inhibition at 10 μM) | A4: inhibition of radioligand binding (Human Melanocortin (MC4); FlashPlate): − (“−” indicates less than 50% inhibition at 10 μM) | A5: inhibition of radioligand binding (Human melanocortin (MC5); FlashPlate): + (“+” indicates greater than 50% inhibition at 10 μM) | A6: inhibition of radioligand binding ([1]; [125I]-S36057, FlashPlate): − (“−” indicates less than 50% inhibition at 10 μM) | A7: inhibition of radioligand binding (Human μ-opioid (MOP); FlashPlate): − (“−” indicates less than 50% inhibition at 10 μM) | A8: inhibition of radioligand binding (Human neurokinin (NK1); filtration): + (“+” indicates greater than 50% inhibition at 10 μM) | A9: inhibition of radioligand binding ([2]; FlashPlate): − (“−” indicates less than 50% inhibition at 10 μM) | A10: inhibition of radioligand binding (Human opioid (ORL1); FlashPlate): − (“−” indicates less than 50% inhibition at 10 μM) | A11: inhibition of radioligand binding (Mouse urotensin (mUR2); FlashPlate): − (“−” indicates less than 50% inhibition at 10 μM)

CO[C@H]1[C@H](O)[C@@H](COCc2ccc(Cl)cc2)OC(OCCc2ccccc2)[C@@H]1NC(=O)CNC(=N)N (stereo partly shown) [compound 119]
A1 radioligand binding, percentage inhibition (Human δ-opioid (DOP)): − (“−” indicates less than 50% inhibition at 10 μM) | A2 radioligand binding, percentage inhibition (Human κ-Opioid (KOP)): − (“−” indicates less than 50% inhibition at 10 μM) | A3 radioligand binding, percentage inhibition (Human Melanocortin (MC3)): − (“−” indicates less than 50% inhibition at 10 μM) | A4 radioligand binding, percentage inhibition (Human Melanocortin (MC4)): − (“−” indicates less than 50% inhibition at 10 μM) | A5 radioligand binding, percentage inhibition (Human melanocortin (MC5)): − (“−” indicates less than 50% inhibition at 10 μM) | A6 radioligand binding, percentage inhibition [1]: − (“−” indicates less than 50% inhibition at 10 μM) | A7 radioligand binding, percentage inhibition (Human μ-opioid (MOP)): − (“−” indicates less than 50% inhibition at 10 μM) | A8 radioligand binding, percentage inhibition (Human neurokinin (NK1)): + (“+” indicates greater than 50% inhibition at 10 μM) | A9 radioligand binding, percentage inhibition [2]: − (“−” indicates less than 50% inhibition at 10 μM) | A10 radioligand binding, percentage inhibition (Human opioid (ORL1)): − (“−” indicates less than 50% inhibition at 10 μM) | A11 radioligand binding, percentage inhibition (Mouse urotensin (mUR2)): − (“−” indicates less than 50% inhibition at 10 μM)
